From patent US11712438B2, “Phenyl derivatives as PGE2 receptor modulators” (IDORSIA PHARMACEUTICALS LTD, priority 2017, dated 2023)

Key:
Assay in all cases: cell-based
[1] = biological target: PTRGER4 (EP4) (Homo sapiens, UniProt P35408);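 note: assay plate preincubated 15 min at 37 °C, after which PGE2 was added at 20 nM final and incubation continued 120 min at 37 °C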
[2] = biological target: PTGER2 (EP2) (Homo sapiens, UniProt P43116)
Text: The assay is using the PathHunter™ HEK 293 PTGER2 and PTGER4 b-arrestin cell lines from DiscoverX. The system is based on the Enzyme Fragment Complementation Technology. Two complementing fragments of the b-galactosidase enzyme are expressed within stably transfected cells. The larger portion of b-gal, termed EA for Enzyme Acceptor, is fused to the C-terminus of b-arrestin 2. The smaller fragment, termed ProLink™ tag, is fused to PTGER2 (EP2) or PTRGER4 (EP4) at the C-terminus. Upon activation, b-arrestin is recruited which forces the interaction of ProLink and EA, allowing complementation of the two fragments of b-gal and the formation of a functional enzyme which is capable of hydrolysing the substrate and generating a chemiluminescent signal.
The HEK 293 PTGER2 b-arrestin cells (DiscoverX 93-021-4C1) are detached from culture dishes with a cell dissociation buffer (Invitrogen, 13151-014), and collected in growing medium (GM: DMEM+Glutamax-I (Invitrogen 32430)/10% FCS, 1% Penicilin/streptomycin). 5000 cells per well of a 384 well plate (white with white bottom Greiner 781080) are seeded in 20 ul per well of GM. Plate is incubated at 37° C., 5% CO2 for 24 hours.
Stock solutions of test compounds are made at a concentration of 10 mM in DMSO, and serially diluted in DMSO to concentrations required for inhibition dose response curves (tested concentration range 10 μM-2 nM or 1 μM-0.2 nM).
PGE2 (Cayman 14010, stock solution: 10 mM in DMSO) is used as agonist at 5 μM final concentration, corresponding to EC80.
Five microliters of diluted compounds are transferred into the assay plate. Plate is pre-incubated 15 minutes at 37° C. Then five microliters of PGE2 (final conc. 5 μM) are transferred into the assay plate. Plate is incubated 120 minutes at 37° C.
Twelve μl of reagent are transferred to the assay plate and incubate for 1 hour at room temperature in the dark. Luminescence counts are read on a BMG Fluostar Optima reader according to manufacturer's instructions.
For each compound concentration calculate of the percentage of activity compared to DMSO control value as average±STDEV. (each concentration is measured in duplicate)
When compounds were measured multiple times, mean values are given.

[3] = biological target: EP4 (Homo sapiens, UniProt P35408);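 note: inhibition of PGE2-evoked (6 nM) cAMP accumulation in BT549 breast cancer cells endogenously expressing EP4, cAMP read by HTRF competitive immunoassay after 30 min at room temperature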
Sequence of EP4 (P35408 whole entry): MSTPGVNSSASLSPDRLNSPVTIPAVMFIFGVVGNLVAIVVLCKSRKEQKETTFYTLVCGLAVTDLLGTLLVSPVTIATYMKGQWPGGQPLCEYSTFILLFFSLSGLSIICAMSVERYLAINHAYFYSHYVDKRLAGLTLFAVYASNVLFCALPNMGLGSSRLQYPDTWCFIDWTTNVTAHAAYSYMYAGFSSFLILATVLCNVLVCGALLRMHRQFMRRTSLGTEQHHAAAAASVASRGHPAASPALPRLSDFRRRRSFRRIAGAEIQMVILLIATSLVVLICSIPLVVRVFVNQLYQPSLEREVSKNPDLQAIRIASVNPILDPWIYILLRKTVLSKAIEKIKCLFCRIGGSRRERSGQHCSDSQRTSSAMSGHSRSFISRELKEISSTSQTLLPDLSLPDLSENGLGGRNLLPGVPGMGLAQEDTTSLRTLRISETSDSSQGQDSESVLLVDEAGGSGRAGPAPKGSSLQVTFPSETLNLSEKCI

[4] = biological target: EP2 (Homo sapiens, UniProt P43116);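 note: SF295 glioblastoma cells with endogenous EP2 only, PGE2-stimulated cAMP accumulation read by HTRF competitive immunoassay, 45 min pre-incubation then 30 min at room temperature, IBMX in buffer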
Sequence of EP2 (P43116 whole entry): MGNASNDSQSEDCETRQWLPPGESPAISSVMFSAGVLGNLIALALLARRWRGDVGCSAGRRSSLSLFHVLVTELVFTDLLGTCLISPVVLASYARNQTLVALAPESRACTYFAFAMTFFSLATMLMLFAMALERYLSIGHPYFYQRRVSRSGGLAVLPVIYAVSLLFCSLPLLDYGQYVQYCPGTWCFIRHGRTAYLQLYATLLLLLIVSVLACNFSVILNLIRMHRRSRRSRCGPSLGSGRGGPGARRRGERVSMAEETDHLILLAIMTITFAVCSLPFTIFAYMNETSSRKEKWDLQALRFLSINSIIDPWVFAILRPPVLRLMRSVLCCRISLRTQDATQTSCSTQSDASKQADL
Experimental: The antagonistic activities of the compounds of formula (I) on the EP2 and EP4 receptors are also determined in accordance with the following experimental method.
Human tumor cell lines expressing endogenously either EP4 or EP2 are used and cAMP accumulation in cells upon PGE2 stimulation is monitored. SF295 glioblastoma cells express high endogenous EP2 and no EP4,whereas BT549 breast cancer cells, express high endogenous EP4 levels and very low EP2 levels.
As a detection method for cAMP the HTRF (homogeneous time resolved fluorescence) Cisbio kit (HTRF cAMP dynamic 2 kit 20′000 tests Cisbio Cat. #62AM4PEC) was used, which is based on a competitive immunoassay using a Cryptate-labeled anti-cAMP antibody and d2-labeled cAMP. Native cAMP produced by cells or unlabeled cAMP (for the standard curve) compete with exogenously added d2-labeled cAMP (acceptor) for binding to monoclonal anti-cAMP-Eu3+ Cryptate (donor). A FRET signal (Fluorescence Resonance Energy Transfer) is obtained only if the labeled anti-cAMP antibody binds the d2 labelled cAMP, thus the specific signal (i.e. energy transfer) is inversely proportional to the concentration of cAMP in the standard or sample.
The SF295 cells (NCI/No. 0503170) are detached from culture dishes with a cell dissociation buffer (Invitrogen, 13151-014), and collected in growing medium (GM: RPM11640 (Invitrogen 21875)/10% FCS, 1% Penicilin/streptomycin). Cells are counted washed and resuspended in assay buffer (AB; HBSS, 20 mM HEPES, 0.2% BSA; 2 mM IBMX). 4′000 cells in 5 μl of AB are seeded per well of a small volume 384 well plate (black with flat bottom, Greiner 784076).
PGE2 (Cayman 14010, stock solution: 750 in DMSO) is used as agonist at 75 nM final concentration, corresponding to EC80.
Two point five microliters of diluted compounds are transferred into the assay plate. Plate is pre-incubated 45 minutes at room temperature. Subsequently, 2.5 microliters of PGE2 (final conc. 75 nM) are transferred into the assay plate. Plate is incubated 30 minutes at room temperature.
For each compound concentration the percentage of cAMP compared to DMSO control value as average±STDEV (each concentration is measured in duplicate) is calculated.

Sequence of PTGER2 (EP2) (P43116 whole entry): as above
Sequence of PTRGER4 (EP4) (P35408 whole entry): as the sequence (P35408 whole entry) above

| SMILES | IC50 [1] [nM] | IC50 [2] [nM] | IC50 [3] [nM] | IC50 [4] [nM] |
| --- | --- | --- | --- | --- |
| CCOc1cc(-c2cc(NCCc3ccc(O)c(OC)c3)ncn2)sc1-c1noc(=O)[nH]1 [Example 118, 3-(3-Ethoxy-5-{6-[2-(4-hydroxy-3-methoxy-phenyl)-ethylamino]-pyrimidin-4-yl}-thiophen-2yl)-[1,2,4]oxadiazol-5(4H)-one] | 316 | 488 | 148 | 266 |
| CCOc1cc(-c2cc(NCCc3cccc(OC)c3OC)ncn2)sc1-c1noc(=O)[nH]1 [Example 119, 3-(5-{6-[2-(2,3-Dimethoxy-phenyl)-ethylamino]-pyrimidin-4-yl}-3-ethoxy-thiophen-2-yl)-[1,2,4]oxadiazol-5(4H)-one] | 5 | 10 | 11 | 17 |
| CCOc1cc(-c2cc(NCCc3cc(Br)ccc3OC)ncn2)sc1-c1noc(=O)[nH]1 [Example 120, 3-(5-{6-[2-(5-Bromo-2-methoxy-phenyl)-ethylamino]-pyrimidin-4-yl}-3-ethoxy-thiophen-2yl)-[1,2,4]oxadiazol-5(4H)-one] | 21 | 35 | 69 | 13 |
| CCOc1cc(-c2cc(NCCc3ccc(Cl)c(Cl)c3)ncn2)sc1-c1noc(=O)[nH]1 [Example 121, 3-(5-{6-[2-(3,4-Dichloro-phenyl)-ethylamino]-pyrimidin-4-yl}-3-ethoxy-thiophen-2-yl)-[1,2,4]oxadiazol-5(4H)-one] | 9 | 66 | 42 | 60 |
| CCOc1cc(-c2cc(NCCc3ccc(Cl)cc3Cl)ncn2)sc1-c1noc(=O)[nH]1 [Example 123, 3-(5-{6-[2-(2,4-Dichloro-phenyl)-ethylamino]-pyrimidin-4-yl}-3-ethoxy-thiophen-2-yl)-[1,2,4]oxadiazol-5(4H)-one] | 27 | 29 | 19 | 32 |
| CCOc1cc(-c2cc(NCCc3ccc(Br)cc3F)ncn2)sc1-c1noc(=O)[nH]1 [Example 125, 3-(5-{6-[2-(4-Bromo-2-fluoro-phenyl)-ethylamino]-pyrimidin-4-yl}-3-ethoxy-thiophen-2-yl)-[1,2,4]oxadiazol-5(4H)-one] | 3 | 11 | 5 | 49 |
| CCOc1cc(-c2cc(NCCc3ccc(Br)cc3OC)ncn2)sc1-c1noc(=O)[nH]1 [Example 126, 3-(5-{6-[2-(4-Bromo-2-methoxy-phenyl)-ethylamino]-pyrimidin-4-yl}-3-ethoxy-thiophen-2yl)-[1,2,4]oxadiazol-5(4H)-one] | 7 | 22 | 20 | 74 |
| CCOc1cc(-c2cc(NCCc3ccc(Br)cc3C)ncn2)sc1-c1noc(=O)[nH]1 [Example 127, 3-(5-{6-[2-(4-Bromo-2-methyl-phenyl)-ethylamino]-pyrimidin-4-yl}-3-ethoxy-thiophen-2-yl)-[1,2,4]oxadiazol-5(4H)-one] | 14 | 29 | 47 | 129 |
| CCOc1cc(-c2cc(NCCc3ccc(Br)cc3)ncn2)sc1-c1noc(=O)[nH]1 [Example 130, 3-(5-{6-[2-(4-Bromo-phenyl)-ethylamino]-pyrimidin-4-yl}-3-ethoxy-thiophen-2-yl)-[1,2,4]oxadiazol-5(4H)-one] | 4 | 22 | 24 | 63 |
| CCOc1cc(-c2cc(NCCc3ccc(Br)cc3)ncn2)sc1-c1nnn[nH]1 [Example 131, [2-(4-Bromo-phenyl)-ethyl]-{6-[4-ethoxy-5-(1H-tetrazol-5-yl)-thiophen-2-yl]-pyrimidin-4-yl}-amine] | 3 | 18 | 11 | 54 |
| O=c1[nH]c(-c2sc(-c3cc(NCCc4c(F)cc(Br)cc4F)ncn3)cc2C(F)(F)F)no1 [Example 133, 3-(5-{6-[2-(4-Bromo-2,6-difluoro-phenyl)-ethylamino]-pyrimidin-4-yl}-3-trifluoromethyl-thiophen-2-yl)-[1,2,4]oxadiazol-5(4H)-one] | 13 | 13 | 44 | 92 |
| O=c1[nH]c(-c2ccc(-c3cc(NCCc4c(F)cc(Br)cc4F)ncn3)s2)no1 [Example 135, 3-(5-{6-[2-(4-Bromo-2,6-difluoro-phenyl)-ethylamino]-pyrimidin-4-yl}-thiophen-2-yl)-[1,2,4]oxadiazol-5(4H)-one] | 8 | 26 | 34 | 15 |
| Cc1cc(-c2cc(NCCc3c(F)cc(Br)cc3F)ncn2)sc1-c1noc(=O)[nH]1 [Example 136, 3-(5-{6-[2-(4-Bromo-2,6-difluoro-phenyl)-ethylamino]-pyrimidin-4-yl}-3-methyl-thiophen-2-yl)-[1,2,4]oxadiazol-5(4H)-one] | 6 | 18 | 18 | 17 |
| CCOc1cc(-c2cc(NCCc3c(F)cc(Br)cc3F)ncn2)sc1Cc1noc(=O)[nH]1 [Example 138, 3-(5-{6-[2-(4-Bromo-2,6-difluoro-phenyl)-ethylamino]-pyrimidin-4-yl}-3-ethoxy-thiophen-2-ylmethyl)-[1,2,4]oxadiazol-5(4H)-one] | 130 | 34 | 247 | 123 |
| CCOc1cc(-c2cc(NCCc3ccc(Br)cc3)ncn2)sc1NC(N)=O [Example 146, (5-{6-[2-(4-Bromo-phenyl)-ethylamino]-pyrimidin-4-yl}-3-ethoxy-thiophen-2-yl)-urea] | 14 | 39 | 189 | 249 |
| CCOc1nc(-c2cc(NCCc3c(F)cc(Br)cc3F)ncn2)sc1C(=O)O [Example 148, 2-{6-[2-(4-Bromo-2,6-difluoro-phenyl)-ethylamino]-pyrimidin-4-yl}-4-ethoxy-thiazole-5-carboxylic acid] | 9 | 20 | 8 | 19 |
| CCc1nc(-c2cc(NCCc3c(F)cc(Br)cc3F)ncn2)sc1C(=O)O [Example 149, 2-{6-[2-(4-Bromo-2,6-difluoro-phenyl)-ethylamino]-pyrimidin-4-yl}-4-ethyl-thiazole-5-carboxylic acid] | 43 | 199 | 73 | 67 |
| CCOc1nc(-c2cc(NCCc3c(F)cc(Br)cc3F)ncn2)sc1-c1noc(=O)[nH]1 [Example 150, 3-(2-{6-[2-(4-Bromo-2,6-difluoro-phenyl)-ethylamino]-pyrimidin-4-yl}-4-ethoxy-thiazol-5-yl)-[1,2,4]oxadiazol-5(4H)-one] | 2 | 13 | 9 | 15 |
| CCc1nc(-c2cc(NCCc3c(F)cc(Br)cc3F)ncn2)sc1-c1noc(=O)[nH]1 [Example 151, 3-(2-{6-[2-(4-Bromo-2,6-difluoro-phenyl)-ethylamino]-pyrimidin-4-yl}-4-ethyl-thiazol-5-yl)-[1,2,4]oxadiazol-5(4H)-one] | 3 | 69 | 29 | 43 |
| CCOc1cc(-c2cc(NCCc3c(F)cc(Br)cc3F)ncn2)sc1-c1nnc(O)o1 [Example 152, 5-(5-{6-[2-(4-bromo-2,6-difluoro-phenyl)-ethylamino]-pyrimidin-4-yl}-3-ethoxy-thiophen-2-yl)-[1,3,4]-oxadiazol-2-ol] | 5 | 12 | 30 | 9 |
| CCOc1cc(-c2cc(NCCc3c(F)cc(Br)cc3F)ncn2)sc1C(=O)NS(C)(=O)=O [Example 154, N-(5-{6-[2-(4-Bromo-2,6-difluoro-phenyl)-ethylamino]-pyrimidin-4-yl}-3-ethoxy-thiophene-2-carbonyl)-methanesulfonamide] | 33 | 13 | 66 | 8 |
| CCOc1cc(-c2cc(NCCc3c(F)cc(Br)cc3F)ncn2)sc1C(=O)NS(N)(=O)=O [Example 155, 5-(6-((4-Bromo-2,6-difluorophenethyl)amino)pyrimidin-4-yl)-3-ethoxy-N-sulfamoylthiophene-2-carboxamide] | 35 | 12 | 62 | 20 |
| CCOc1cc(-c2cc(NCCc3c(F)cc(Br)cc3F)nc(C)n2)sc1-c1noc(=O)[nH]1 [Example 156, 3-(5-{6-[2-(4-Bromo-2,6-difluoro-phenyl)-ethylamino]-2-methyl-pyrimidin-4-yl}-3-ethoxy-thiophen-2-yl)-[1,2,4]oxadiazol-5(4H)-one] | 31 | 9 | 16 | 28 |
| CCOc1cc(-c2cc(NCCc3ccc(Br)cc3)nc(C)n2)sc1-c1noc(=O)[nH]1 [Example 157, 3-(5-{6-[2-(4-Bromo-phenyl)-ethylamino]-2-methyl-pyrimidin-4-yl}-3-ethoxy-thiophen-2-yl)-[1,2,4]oxadiazol-5(4H)-one] | 57 | 64 | 34 | 99 |
| CC(C)Oc1cc(-c2cc(NCCc3c(F)cc(Br)cc3F)ncn2)sc1-c1noc(=O)[nH]1 [Example 162, 3-(5-{6-[2-(4-Bromo-2,6-difluoro-phenyl)-ethylamino]-pyrimidin-4-yl}-3-isopropoxy-thiophen-2-yl)-[1,2,4]oxadiazol-5(4H)-one] | 2 | 20 | 5 | 46 |
| CCCCOc1cc(-c2cc(NCCc3c(F)cc(Br)cc3F)ncn2)cc(F)c1C(=O)O [Example 167, 4-{6-[2-(4-Bromo-2,6-difluoro-phenyl)-ethylamino]-pyrimidin-4-yl}-2-butoxy-6-fluoro-benzoic acid] | 431 | 42 | 1080 | 198 |
